Results as given in patent US6900021B1, “Microfluidic system and methods of use” (The University of Alberta, priority 1997, dated 2005).
Values belong to the molecule of their own block, whether it stands above or below them.

Tests used:
[1] = system: human lymphocytes; assay: Calcium influx assay (stop flow, Fluo-3 AM fluorescence) with activator; format: cell-based; settings: single lymphocyte
Excerpt: Calcium influx is involved in major cell functions and responses of lymphocytes. In this assay, the calcium ion influx into the lymphocytes is induced by a calcium releasing agent, calcimycin (A23187, calcium ionophore). The rise in the concentration of free intracellular calcium ions results in an increase in fluorescent signal from cells pretreated with a fluorescing agent. The kinetic results of calcium influx may be studied with the stop flow method in the microfluidic device.
There are several steps in the study of the process of calcium influx. First, an activator, calcimycin (A23187 calcium ionophore) and the calcium ion complex must adsorb on the cell surface. Second, the complex has to diffuse through the cell membrane. Third, once inside the cytosol, dissociation between the A23187 and calcium ion has to take place. Finally, a fluorescing agent, FLUO-3 AM, complexes with the released calcium and produces emitted light that can be detected (fluorescence).
For measurement of calcium influx, a calcium-specific fluorophore, Fluo-3 AM (Molecular Proves), was preloaded into purified human lymphocytes as acetoxymethyl (AM) ester. […]
A fluorescence microscope equipped with a 25× objective and a CCD camera was positioned over the detection zone, point “B” in FIG. 8, allowed the observation of cells as they passed the detection zone. […]

[2] = system: canine erythrocytes; assay: Lysis of canine erythrocytes by SDS in the microchip; format: cell-based, dog
Experimental: A phosphate buffer, 40 mM each of NA2HPO4 and KH2PO4 (BDH analytical grade) was adjusted to pH 7.4 with either NaOH or HCl and used as an isotonic buffer for canine erythrocytes. (The plasma concentrations of […] in canine plasma are 94 and 6 mM. respectively. (8,9) Assuming a monoanion as the counterion gives as osmolarity of 200 mM, equal to that of the buffer prepared.) A hypotonic solvent, deionized water, was used to prepare yeast or E. coli cell suspensions. Sodium dodecyl sulfate (SDS, Serva, analytical grade) was prepared at 3 mM (0.1 wt %) in deionized water. Other chemicals were reagent grade and were used without further purification.
Red blood cells of a healthy dog were obtained from Heritage Medical Research Centre (Edmonton, AB, Canada). Blood samples were collected using EDTA as the anticoagulant. These were centrifuged for separation into various blood components. After removal of the plasma and buffy coat, the erythrocytes were isolated as a cell pellet. A citrate-phosphate-dextrose (CPD) solution, (9), used to store human whole blood for enhancement of the poststorage viability of red cells, (10), was adapted for handling and storing the canine cells by addition of KCl and NaCl as well. The solutions contained 2.5 mM dextrose, 1.6 mM sodium citrate, 0.28 mM citric acid, 0.15 mM Na2HPO4, 94 mM NaCl, and 6.0 mM KCl. An erythrocyte suspension of 5% hematocrit was used. The cells were washed several times with the isotonic phosphate buffer to remove the storage buffer, using a Sanyo MSE MicroCentaur centrifuge.
The visual cell lysis experiment was performed in the COPI device (FIG. 5A). The B reservoir, which contained erythrocytes and the S reservoir, containing 3 mM SDS, were both at +150 V, while the SW reservoir was at ground. The potential at BW was floating.
For the cell lysis experiment using PMT detection, the PCRD2 device (FIG. 5B) was used. Cells were introduced into the S reservoir to which 400 V was applied, versus ground on the SW reservoir. A 3 mM SDS solution was introduced into the B reservoir. […]

[3] = system: human lymphocytes; assay: Calcium influx assay with lymphocyte inhibitor; format: cell-based
Experimental: The microfluidic device and human lymphocytes were prepared as described in Example III.
With reference to FIG. 8, 100 μM of verapamil, an inhibitor, was introduced into channel #1; buffer was introduced into channel #2; leukocytes were introduced into channel #3; and calcium activator A23187 was introduced into channel #4.
The device was run as described in Example III above. Verapamil was introduced to the lymphocytes at point “A” intersection of the device (FIG. 8). The lymphocytes were incubated with verapamil for four minutes while transported through the main channel to the mixing point “B”.

[4] = biological target: T1, P-selectin (Homo sapiens, UniProt P16109); assay: Cell rolling assay with undiluted human blood, P-selectin coated device; format: cell-based; settings: heparinated whole human blood; HCRIVc device
T1 sequence (P16109 42-830): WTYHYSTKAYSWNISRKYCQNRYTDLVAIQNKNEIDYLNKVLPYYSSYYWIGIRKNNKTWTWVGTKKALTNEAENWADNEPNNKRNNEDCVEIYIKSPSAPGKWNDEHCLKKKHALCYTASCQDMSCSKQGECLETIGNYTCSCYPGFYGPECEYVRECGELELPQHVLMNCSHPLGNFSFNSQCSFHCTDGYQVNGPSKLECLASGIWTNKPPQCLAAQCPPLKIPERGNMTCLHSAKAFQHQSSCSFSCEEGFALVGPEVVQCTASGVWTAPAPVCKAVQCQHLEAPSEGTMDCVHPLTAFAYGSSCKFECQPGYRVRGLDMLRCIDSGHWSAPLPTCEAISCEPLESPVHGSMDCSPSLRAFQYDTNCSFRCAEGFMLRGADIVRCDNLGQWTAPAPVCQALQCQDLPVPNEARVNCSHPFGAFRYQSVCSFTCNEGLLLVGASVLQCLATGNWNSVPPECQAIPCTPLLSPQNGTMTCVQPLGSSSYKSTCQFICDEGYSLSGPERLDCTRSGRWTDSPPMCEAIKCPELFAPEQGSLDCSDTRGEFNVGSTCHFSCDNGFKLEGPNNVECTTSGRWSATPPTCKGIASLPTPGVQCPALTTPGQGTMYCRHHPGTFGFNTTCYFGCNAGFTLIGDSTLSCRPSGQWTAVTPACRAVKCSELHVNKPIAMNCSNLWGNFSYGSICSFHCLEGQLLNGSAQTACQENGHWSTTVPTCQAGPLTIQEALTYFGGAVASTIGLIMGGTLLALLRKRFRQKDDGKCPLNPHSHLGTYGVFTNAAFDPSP
Experimental: (§1) This device was previously coated either P-selectin or E-selectin as described above. 50 μl heparinated whole human blood (1 mg/ml heparin was added to the blood) was introduced into the first reservoir of the “Y” shape device shown in FIG. 12. The human blood was moved from the reservoir into the channel by a syringe pump at optimum flow rate for the device (see Table II) and the main flow channel, about 1-2 cm from intersection of “Y”, was observed under the microscope for 15 minutes.
(§2) 50 μl of a mixture of inhibitor and heparinated blood was placed into the second reservoir and introduced into the channel for 3-10 minutes.

[5] = biological target: T2, E-selectin (Homo sapiens, UniProt P16581); assay: Cell rolling of neutrophils on E-selectin coated microchip; format: cell-based; settings: concentration not given
T2 sequence (P16581 22-610): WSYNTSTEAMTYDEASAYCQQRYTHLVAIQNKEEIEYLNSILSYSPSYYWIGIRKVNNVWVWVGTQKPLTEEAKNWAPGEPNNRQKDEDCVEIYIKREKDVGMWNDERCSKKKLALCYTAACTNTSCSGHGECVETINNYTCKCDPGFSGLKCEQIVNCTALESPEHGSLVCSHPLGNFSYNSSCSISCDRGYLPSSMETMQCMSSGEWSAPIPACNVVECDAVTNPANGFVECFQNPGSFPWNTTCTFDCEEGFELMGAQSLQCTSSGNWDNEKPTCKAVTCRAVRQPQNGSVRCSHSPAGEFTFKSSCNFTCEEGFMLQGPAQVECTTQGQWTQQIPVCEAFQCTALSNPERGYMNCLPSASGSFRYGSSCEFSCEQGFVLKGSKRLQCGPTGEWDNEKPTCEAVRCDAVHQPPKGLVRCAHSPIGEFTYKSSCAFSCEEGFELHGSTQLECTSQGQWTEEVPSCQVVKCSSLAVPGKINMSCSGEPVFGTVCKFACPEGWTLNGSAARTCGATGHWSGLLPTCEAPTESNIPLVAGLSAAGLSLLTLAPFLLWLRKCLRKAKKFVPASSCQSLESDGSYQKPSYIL

[6] = biological target: T1, P-selectin; assay: Cell rolling of neutrophils on P-selectin coated microchip; format: cell-based; settings: concentration not given
Experimental: In preparation for cell rolling, the channels were coated with the desired selectin by methods similar to those set forth in Example VII.
To study cell rolling, two reservoirs leading to one channel were filled with cells. The contents of both the first and second reservoir (cells only) were drawn into the channel and cell rolling was observed.
The HCRIVa microchip was coated with 20 μg/ml P-selectin by methods similar to that described in Example VII and incubated for two hours. Isolated human neutrophils were moved through the rolling microchip with a flow rate of 10 μl/min. (approx. 800/cm shear rate=40 dynes/cm^2 shear force).

[7] = biological target: T2, E-selectin; assay: Cell rolling assay with undiluted human blood, E-selectin coated device; format: cell-based; settings: heparinated whole human blood; HCRIVc device
Experimental: as §1, §2

Molecule: CNc1ccc2oc(C[C@H]3O[C@@]4(CC[C@H]3C)O[C@H]([C@H](C)C(=O)c3ccc[nH]3)[C@H](C)C[C@H]4C)nc2c1C(=O)O [A23187, calcimycin]
time at the mixing point until lymphocyte showed fluorescence caused by calcium influx [1]: 4 s

Molecule: CCCCCCCCCCCCOS(=O)(=O)[O-].[Na+] [SDS, Sodium dodecyl sulfate]
scattered light signal from the cells ([2]; 3 mM SDS in deionized water, PMT 2.5 mm downstream of mixing point, PCRD2 device): signal dropped
total time elapsed for lysis of the marked cells (three frames) ([2]; 3 mM SDS, COPI device, double-T region, 130 V/cm): 0.3 s
lysis of erythrocytes (hemolysis) in a flowing stream ([2]; anionic detergent mixed with cell stream at an intersection): lysed cells sufficiently rapidly

Molecule: COc1ccc(CCN(C)CCCC(C#N)(c2ccc(OC)c(OC)c2)C(C)C)cc1OC (centres unmarked) [verapamil]
activation in calcium flux ([3]; 100 μM, incubated four minutes, activator A23187): significant reduction
fluorescence of inhibitor treated lymphocyte after activation with A23187 ([3]; 100 μM, incubated four minutes, twenty individual lymphocytes): no fluorescence
inhibition of calcium influx ([3]; lymphocytes incubated for 30 seconds in the mixing channel): no inhibition

inhibition of leukocyte rolling in whole blood in the presence of P-selectin [4]: took a longer time to inhibit rolling
inhibition of rolling of the neutrophils in the presence of E-selectin [5]: took a longer time to inhibit rolling
inhibition of rolling of the neutrophils in the presence of P-selectin [6]: took a longer time to inhibit rolling
inhibition of leukocyte rolling in whole blood in the presence of E-selectin [7]: took a longer time to inhibit rolling
Molecule: Fucoidine
